Literature values as cited in the PKSmart pharmacokinetics tables (Seal et al. 2025).

Assays:
[1] = Lombardo, Berellini, Obach 2018, Drug Metab Dispos 46:1466, doi 10.1124/dmd.118.082966; settings: human; for MRT / Vd / clearance / half-life: in vivo, iv; for fraction unbound: plasma
[2] = Lombardo et al. 2013, J Clin Pharmacol 53:178, doi 10.1177/0091270012440282; settings: for Vd / clearance: in vivo, iv; for fraction unbound: plasma

| Structure (SMILES) | MRT [1] [h] | Vd [1] [L/kg] | clearance [1] [mL/min/kg] | half-life [1] [h] | fraction unbound [1] | Vd ([2]; dog) [L/kg] | Vd ([2]; rat) [L/kg] | clearance ([2]; rat) [mL/min/kg] | clearance ([2]; dog) [mL/min/kg] | fraction unbound ([2]; dog) | fraction unbound ([2]; rat) | Vd ([2]; monkey) [L/kg] | clearance ([2]; monkey) [mL/min/kg] | fraction unbound ([2]; monkey) |
| --- | --- | --- | --- | --- | --- | --- | --- | --- | --- | --- | --- | --- | --- | --- |
| CC(=O)[C@]1(O)Cc2c(O)c3c(c(O)c2[C@@H](O[C@H]2C[C@H](N)[C@H](O)[C@H](C)O2)C1)C(=O)c1ccccc1C3=O | 26 | 38 | 24 | 16 | 0.076 | 34.5 | 36.5 | 78.5 |  |  |  |  |  |  |
| Cc1cccc(Nc2ccncc2S(=O)(=O)NC(=O)NC(C)C)c1 | 6.6 | 0.21 | 0.53 | 5.1 |  | 0.08 | 0.23 | 3.74 | 0.14 | 0.02 | 0.06 |  |  |  |
| C[C@@H](O)C1C(=O)N2C(C(=O)O)=C(S[C@@H]3CNC(C(=O)N(C)C)C3)[C@H](C)[C@H]12 (some centres not stated) | 1.3 | 0.3 | 3.9 | 1 | 0.87 | 0.22 | 0.14 | 26.4 | 4 | 0.726 | 0.5 | 0.23 | 7.5 | 0.666 |
| NC(C(=O)O)[C@@H]1CC(Cl)=NO1 (some centres not stated) | 12 | 0.5 | 0.69 | 9.9 |  | 0.58 | 0.74 | 6.4 | 1.4 |  |  | 0.61 | 2.3 |  |
| CCOC(=O)c1ncn2c1CN(C)C(=O)c1cc(F)ccc1-2 | 1 |  | 16 | 0.78 |  | 1 | 1.3 | 147 | 16 | 0.685 |  |  |  |  |
| O=C(O)c1cc(-c2ccc(F)cc2F)ccc1O | 14 | 0.097 | 0.1 | 10 |  |  | 0.15 | 1.52 |  |  |  |  |  |  |
| C[C@@H](O)C1C(=O)N2C(C(=O)O)=C(S[C@@H]3CNC(C(=O)Nc4cccc(C(=O)O)c4)C3)[C@H](C)[C@H]12 (some centres not stated) | 4.4 | 0.12 | 0.45 | 3.8 | 0.1 |  | 0.34 | 10 |  |  |  | 0.17 | 0.47 |  |
| C[C@]12CC[C@@H]3c4ccc(OC(=O)N(CCCl)CCCl)cc4CC[C@H]3[C@@H]1CC[C@@H]2OP(=O)(O)O | 2.1 | 0.12 | 0.94 | 2.4 | 0.5 | 0.16 |  |  | 2 |  |  |  |  |  |
| O=P(O)(O)C(O)(Cn1ccnc1)P(=O)(O)O | 4.5 | 0.6 | 2.2 | 11 | 0.78 | 0.28 |  |  | 4.13 |  |  |  |  |  |
| CN1CCN(C2=Nc3cc(Cl)ccc3Nc3ccccc32)CC1 | 11 | 1.6 |  | 10 |  |  | 8.68 |  |  |  |  |  |  |  |
| C[C@H]1[C@H](OC(=O)CCC(=O)O)O[C@@H]2O[C@@]3(C)CC[C@H]4[C@H](C)CC[C@@H]1[C@@]24OO3 | 0.32 |  | 1070 | 0.22 | 0.25 |  |  | 212 | 44 | 0.181 | 0.22 |  |  |  |
| COc1cc2c(c(OC)c1OC)-c1ccc(OC)c(=O)cc1[C@@H](NC(C)=O)CC2 | 49 | 6.1 | 2.1 | 58 |  |  | 31.4 | 34.3 |  |  |  |  |  |  |
| COc1cccc2c1C(=O)c1c(O)c3c(c(O)c1C2=O)C[C@@](O)(C(=O)CO)C[C@@H]3O[C@H]1C[C@H](N)[C@H](O)[C@H](C)O1 | 24 | 22 | 15 | 32 |  | 31.6 | 5.5 | 32.4 | 7.93 |  |  |  |  |  |
| CC1COc2c(N3CCN(C)CC3)c(F)cc3c(=O)c(C(=O)O)cn1c23 (configuration not stated) | 11 | 1.6 | 2.5 | 8.9 |  | 1.3 | 1.42 | 13.2 | 23.2 | 0.51 |  |  |  | 0.71 |
| CCS(=O)(=O)CCn1c([N+](=O)[O-])cnc1C | 16 | 0.59 | 0.6 | 13 |  | 0.89 |  |  | 1.67 |  |  |  |  |  |
| Cc1nc2sccn2c(=O)c1CCN1CCC(=C(c2ccc(F)cc2)c2ccc(F)cc2)CC1 | 46.1 | 1.41 | 0.51 | 40 | 0.008 |  | 8 | 26.7 |  |  | 0.015 |  |  |  |
| CN1CCN(c2c(F)cc3c(=O)c(C(=O)O)cn(CCF)c3c2F)CC1 | 11 | 1.6 | 2.4 | 8.6 |  | 1.3 | 1.3 | 5.8 | 1.6 | 0.51 | 0.49 | 1.2 | 4 | 0.607 |
| Cc1nnc2n1-c1ccc(Cl)cc1C(c1ccccc1Cl)=NC2 | 3.2 | 0.58 |  | 2.7 |  |  | 3.4 |  |  |  |  |  |  |  |
| CC1=C(C(=O)O)N2C(=O)C(NC(=O)C(N)C3=CCC=CC3)[C@H]2SC1 (some centres not stated) | 1.1 | 0.21 | 3.3 | 0.85 |  |  | 1.1 | 21.7 |  |  |  |  |  |  |
| CC(C)C[C@H](NC(=O)C(NC(=O)c1cccc(-c2ccccc2)n1)[C@@H](C)O)B(O)O (some centres not stated) | 50.6 | 0.87 | 0.29 | 42.1 |  |  | 18.1 | 3.17 |  |  |  |  |  |  |
| COc1cc2c3cc1Oc1cc(ccc1O)C[C@@H]1c4c(cc(OC)c([O-])c4Oc4ccc(cc4)C[C@@H]3N(C)CC2)CC[N+]1(C)C | 2.2 | 0.45 | 3.4 | 2 | 0.58 | 0.37 |  |  | 3.73 |  |  |  |  |  |
| COc1cc2nc(N3CCN(C(=O)C4COc5ccccc5O4)CC3)nc(N)c2cc1OC (configuration not stated) | 14 | 1.3 |  | 10 |  | 5 | 3 |  | 13 | 0.0653 | 0.03 |  |  |  |
| CO[C@@]1(NC(O)=c2sc(=C(C(N)=O)C(=O)O)s2)C(=O)N2C(C(=O)O)=C(CSc3nnnn3C)CS[C@@H]21 | 5.2 | 0.13 | 0.42 | 4.5 | 0.15 | 0.25 | 0.25 | 12.8 | 4 | 0.6 | 0.7 | 0.17 | 1.7 | 0.13 |
| Nc1nc(NC2CC2)c2ncn([C@H]3C=C[C@@H](CO)C3)c2n1 | 1.1 | 0.84 | 13 | 1 | 0.5 |  |  | 30 |  |  |  |  |  |  |
| C#C[C@]1(O)CC[C@H]2[C@@H]3CCc4cc(O)ccc4[C@H]3CC[C@@]21C | 11 | 4.3 | 7 | 9.7 | 0.014 | 17 | 5.7 | 55 | 25 |  | 0.0088 | 7.2 | 36 | 0.0099 |
| COc1cccc2c1C(=O)c1c(O)c3c(c(O)c1C2=O)C[C@@](O)(C(=O)CO)C[C@@H]3O[C@H]1C[C@H](N)[C@@H](O)[C@H](C)O1 | 38 | 45 | 20 | 36 |  | 71.9 | 0.17 | 25.9 |  | 0.808 |  |  |  |  |
| CCn1cc(C(=O)O)c(=O)c2cc(F)c(N3CCNCC3)nc21 | 6.2 | 2 | 5.4 | 5.1 | 0.8 |  | 1.8 | 42.7 |  |  |  |  |  |  |
| Nc1ccc(S(=O)(=O)Nc2ncccn2)cc1 | 8.8 | 0.29 | 0.55 | 7 |  |  | 0.34 | 1.1 |  | 0.78 | 0.86 | 0.5 | 0.64 | 0.463 |
